In patent US20240208978A1, “IDH MUTANT INHIBITOR AND USE THEREOF” (WIGEN BIOMEDICINE TECHNOLOGY (SHANGHAI) CO., LTD., priority 2021, published 2024):

What was measured:
mIDH1 R132H = target: T1, mIDH1 R132H (Homo sapiens, UniProt O75874, R132H); experiment: Detection of 2-HG in supernatant of U87-IDH1 R132H cells; format: cell-based; settings: U-87 MG, 72 h, U87MG cells overexpressing mIDH1 R132H, LC-MS-MS; for inhibition at 0.001 µM: 1 nM compound, read-out: Inhibition rate on 2-HG in the supernatant of U87-IDH R132H cells, 1 nM; for inhibition at 0.01 µM: 10 nM compound, read-out: Inhibition rate on 2-HG in the supernatant of U87-IDH R132H cells, 10 nM; for inhibition at 0.1 µM: 100 nM compound, read-out: Inhibition rate on 2-HG in the supernatant of U87-IDH R132H cells, 100 nM
T1 construct: expressed in transfected cells; host or cells: U87MG
Procedure: (§1) U87MG cells overexpressing the mIDH1 R132H mutation or HT1080 cells carrying IDH1 R132C were seeded in a 48-well plate and a 96-well plate at 50,000 cells/well and 10,000 cells/well, respectively. After the cells were incubated overnight for adhesion, the supernatants were removed. The cell culture media containing serially diluted compounds were added, and the cells were incubated for 72 h. After 72 h, the culture media were collected and diluted 10-fold and 20-fold with water, respectively. Acetonitrile was added to extract the metabolites. The 2-HG content in the culture media was analyzed by LC-MS-MS. The percentage inhibition and IC50 of the compounds on 2-HG in the supernatant were calculated as compared with the control group.

IDH1 R132C = target: T2, IDH1 R132C (Homo sapiens, UniProt O75874, R132C); experiment: Detection of 2-HG in supernatant of HT1080 cells carrying IDH1 R132C; format: cell-based; settings: 72 h, LC-MS-MS
T2 construct: endogenous in cells; host or cells: HT1080
Procedure: as §1

[1] = Stability test of human liver microsomes; format: in vitro ADME; settings: 1 μM compound, 500 μg/ml human liver microsomes, NADPH regeneration system, 37° C.; read-out: Liver microsomal stability T1/2, Human
Procedure: (§2) After the 1 μM compound was incubated with 500 μg/ml of human or mouse liver microsomes and a NADPH regeneration system at 37° C. for different times, respectively, LC-MS-MS was used to analyze the remaining amount of the compound and calculate T1/2.

[2] = Stability test of mouse liver microsomes; format: in vitro ADME; settings: 1 μM compound, 500 μg/ml mouse liver microsomes, NADPH regeneration system, 37° C.; read-out: Liver microsomal stability T1/2, Mouse
Procedure: as §2

T2 sequence (O75874 whole entry R132C): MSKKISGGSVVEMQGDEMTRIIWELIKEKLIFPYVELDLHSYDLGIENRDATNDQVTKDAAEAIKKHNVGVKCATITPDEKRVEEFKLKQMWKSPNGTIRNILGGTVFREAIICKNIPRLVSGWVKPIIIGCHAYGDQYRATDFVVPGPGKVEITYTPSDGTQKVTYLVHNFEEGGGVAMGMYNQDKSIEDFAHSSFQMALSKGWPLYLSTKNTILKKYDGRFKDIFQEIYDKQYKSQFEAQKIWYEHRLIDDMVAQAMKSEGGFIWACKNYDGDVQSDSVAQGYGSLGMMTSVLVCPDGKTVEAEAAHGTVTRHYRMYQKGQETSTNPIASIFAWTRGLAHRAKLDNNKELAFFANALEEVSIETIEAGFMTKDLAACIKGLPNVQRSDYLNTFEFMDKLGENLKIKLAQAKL
T1 sequence (O75874 whole entry R132H): as the sequence (O75874 whole entry R132C) above, with C132H counted along it

Compound | inhibition at 0.001 µM (mIDH1 R132H) | inhibition at 0.01 µM (mIDH1 R132H) | inhibition at 0.1 µM (mIDH1 R132H) | IC50 (IDH1 R132C) | half-life at 1 μM [1] | half-life at 1 μM [2]
C=CC(=O)N1CCN([C@@H](CC2CC2)c2ccc([C@H](C)Nc3ncc4c(n3)N(CC)C(=O)OC4)cc2)CC1 [LY-3410738, reference compound] | 30 to 60% | > 90% | > 90% | 1.9 nM | 1.8 min | 1.6 min
C=CC(=O)N1CCN([C@@H](CC2CC2)c2ccc([C@H](C)Nc3ncc4[nH]c(=O)n(CC)c4n3)cc2)CC1 [Compound 1-1] | – | – | – | 2.24 nM | 11.3 min | 4.4 min
C=CC(=O)N1CCN(C(CC2CC2)c2ccc(C(C)Nc3ncc4[nH]c(=O)n(C5CCCC5)c4n3)cc2)CC1 (stereo not drawn) [Compound 6-1] | – | – | – | 3.22 nM | 4.4 min | 3.9 min
C=CC(=O)N1CCN(C(CC2CC2)c2ccc([C@H](C)Nc3ncc4[nH]c(=O)n(C(C)C)c4n3)cc2)CC1 (stereo partly drawn) [Compound 3] | 30 to 60% | > 90% | > 90% | 2.06 nM | – | –
C=CC(=O)N1CCN([C@@H](CC2CC2)c2ccc([C@H](C)Nc3ncc4[nH]c(=O)n(C(C)C)c4n3)cc2)CC1 [Compound 3-1] | – | – | – | 1.22 nM | 5 min | 4 min
C=CC(=O)N1CCN(C(CC2CC2)c2ccc([C@H](C)Nc3ncc4[nH]c(=O)n(CC)c4n3)cc2)CC1 (stereo partly drawn) [Compound 1, 2-(((1S)-1-(4-(1-(4-acryloylpiperazin-1-yl)-2-cyclopropylethyl)phenyl)ethyl)amino)-9-ethyl-7,9-dihydro-8H-purin-8-one] | 60 to 90% | > 90% | > 90% | 4.48 nM | – | –
C=CC(=O)N1CCN([C@@H](CC2CC2)c2ccc([C@H](C)Nc3ncc4[nH]c(=O)n(C5CC5)c4n3)cc2)CC1 [Compound 4-1] | – | – | – | 11.5 nM | – | –
